Structures are written as SMILES.

The experiment addresses Neuraminidase (Influenza A virus (A/Puerto Rico/8/1934(H1N1)), UniProt P03468). Briefly: Inhibitory activity against influenza A neuraminidase from influenza A/PR/8/34 (H1N1). Also on record: species or system Influenza A virus (strain: A/PR/8/34).
By IC50 is commonly meant the concentration at which inhibition is half-maximal. High values mean weaker potency in that assay, low ones greater potency in that assay. Turning to `CC[C@@H](C)O[C@@H]1C=C(C(=O)O)C[C@H](N)[C@H]1NC(C)=O`, half-maximal inhibition (IC50) was put at 10 nM. `CCO[C@@H]1C=C(C(=O)O)C[C@H](N)[C@H]1NC(C)=O`: the IC50 was found to be 2000 nM. In the case of `CC(=O)N[C@@H]1[C@@H](N)CC(C(=O)O)=C[C@H]1OC(Cc1ccccc1)Cc1ccccc1`, the IC50 is above 1000 nM.

With `CCC(CC)O[C@@H]1C(F)=C(C(=O)O)C[C@H](N)[C@H]1NC(C)=O`, the half-inhibitory concentration (IC50) was 3 nM. `CCCCCCC[C@H](CC)O[C@@H]1C=C(C(=O)O)C[C@H](N)[C@H]1NC(C)=O`: it took 1 nM to reach half-maximal inhibition (IC50). To `CC(=O)N[C@@H]1[C@@H](N)CC(C(=O)O)=C[C@H]1OCc1ccccc1` belongs 620 nM; to `CCCO[C@@H]1C=C(C(=O)O)C[C@H](N=C(N)N)[C@H]1NC(C)=O`, 2 nM; to `CCC(CC)O[C@@H]1C=C(C(=O)O)[C@@H](C)[C@H](N)[C@H]1NC(C)=O`, 1500 nM. The compound `CCCCCCCCCCO[C@@H]1C=C(C(=O)O)C[C@H](N)[C@H]1NC(C)=O` gave an IC50 of 600 nM. With `CO[C@@H]1C=C(C(=O)O)C[C@H](N)[C@H]1NC(C)=O`, the IC50 turned out to be 3700 nM.

Consider `CC(=O)N[C@H]1[C@H](O)C=C(C(=O)O)C[C@@H]1N=C(N)N`, for which the IC50 was determined as 100 nM. As for `CC[C@@H](CCC1CCCCC1)O[C@@H]1C=C(C(=O)O)C[C@H](N)[C@H]1NC(C)=O`, the figure is 1 nM; as for `CC[C@H](C)O[C@@H]1C=C(C(=O)O)C[C@H](N)[C@H]1NC(C)=O`, 9 nM.

`CCCCCCCCCO[C@@H]1C=C(C(=O)O)C[C@H](N)[C@H]1NC(C)=O` displayed an IC50 of 210 nM.

On to `CC(=O)N[C@@H]1[C@@H](N)CC(C(=O)O)=C[C@H]1OC(CCCc1ccccc1)CCCc1ccccc1`, for which the IC50 was above 1000 nM. `CC[C@@H](CC1CCCCC1)O[C@@H]1C=C(C(=O)O)C[C@H](N)[C@H]1NC(C)=O` yielded a half-inhibitory concentration (IC50) of 16 nM. As for `CCC(CC)O[C@@H]1C(C)=C(C(=O)O)C[C@H](N)[C@H]1NC(C)=O`, the IC50 is 2300 nM. `CCCO[C@@H]1C=C(C(=O)O)C[C@H](N)[C@H]1NC(C)=O` yielded an IC50 of 180 nM.

`CC[C@H](CCc1ccccc1)O[C@@H]1C=C(C(=O)O)C[C@H](N)[C@H]1NC(C)=O` yielded an IC50 of 12 nM. For `CC(=O)N[C@@H]1[C@@H](N)CC(C(=O)O)=C[C@H]1OCC(C)C`, the IC50 is 200 nM. The compound `CCCCO[C@@H]1C=C(C(=O)O)C[C@H](N)[C@H]1NC(C)=O` had an IC50 of 300 nM. As for `CC(=O)N[C@@H]1[C@@H](N)CC(C(=O)O)=C[C@H]1OCCCc1ccc(-c2ccccc2)cc1`, the figure is 90 nM; as for `CC(=O)N[C@H]1[C@H](O)C=C(C(=O)O)C[C@@H]1N`, 6300 nM; as for `CC[C@@H](CCc1ccccc1)O[C@@H]1C=C(C(=O)O)C[C@H](N)[C@H]1NC(C)=O`, 0.3 nM. To `CCCCCCCCO[C@@H]1C=C(C(=O)O)C[C@H](N)[C@H]1NC(C)=O` belongs 180 nM; to `CCCCO[C@@H]1C=C(C(=O)O)C[C@H](N=C(N)N)[C@H]1NC(C)=O`, 3 nM; to `CCCCCCCO[C@@H]1C=C(C(=O)O)C[C@H](N)[C@H]1NC(C)=O`, 270 nM. As for `CCCCCCO[C@@H]1C=C(C(=O)O)C[C@H](N)[C@H]1NC(C)=O`, the figure is 150 nM; as for `CCCCCO[C@@H]1C=C(C(=O)O)C[C@H](N)[C@H]1NC(C)=O`, 200 nM.

`CC[C@@H](C)O[C@@H]1C=C(C(=O)O)C[C@H](NC(=N)N)[C@H]1NC(C)=O` (stereo in doubt; 61) showed an IC50 of 0.5 nM.

Source of the values: ChEMBL document CHEMBL1131009, “Structure-activity relationship studies of novel carbocyclic influenza neuraminidase inhibitors” (J Med Chem, 1998).
